These are literature values, as cited in paper PMC4128962 (Journal of controlled release : official journal of the …, 2013).

Take Hyaluronic acid [HA]: the pKa result was “about 3.0”.
